Here are results for one compound from publication PMC7464492, “Cisplatin Decreases ENaC Activity Contributing to Renal Salt Wasting Syndrome” (Cancers, 2020).

Broadly, the IC50 is the concentration at which inhibition is half-maximal.

This assay concerns the target T1, epithelial Na+ channel (mENaC; α-, β- and γ-mouse ENaC subunits) (Mus musculus, UniProt Q61180+Q9WU38+Q9WU39).
T1 construct: gene Scnn1a; α-, β- and γ-mouse ENaC subunits genetically linked to NH2-terminal eCFP, expressed in CHO cells; with β- and γ-ENaC subunits (Scnn1b, Scnn1g)
T1 sequence (Q61180 1-699): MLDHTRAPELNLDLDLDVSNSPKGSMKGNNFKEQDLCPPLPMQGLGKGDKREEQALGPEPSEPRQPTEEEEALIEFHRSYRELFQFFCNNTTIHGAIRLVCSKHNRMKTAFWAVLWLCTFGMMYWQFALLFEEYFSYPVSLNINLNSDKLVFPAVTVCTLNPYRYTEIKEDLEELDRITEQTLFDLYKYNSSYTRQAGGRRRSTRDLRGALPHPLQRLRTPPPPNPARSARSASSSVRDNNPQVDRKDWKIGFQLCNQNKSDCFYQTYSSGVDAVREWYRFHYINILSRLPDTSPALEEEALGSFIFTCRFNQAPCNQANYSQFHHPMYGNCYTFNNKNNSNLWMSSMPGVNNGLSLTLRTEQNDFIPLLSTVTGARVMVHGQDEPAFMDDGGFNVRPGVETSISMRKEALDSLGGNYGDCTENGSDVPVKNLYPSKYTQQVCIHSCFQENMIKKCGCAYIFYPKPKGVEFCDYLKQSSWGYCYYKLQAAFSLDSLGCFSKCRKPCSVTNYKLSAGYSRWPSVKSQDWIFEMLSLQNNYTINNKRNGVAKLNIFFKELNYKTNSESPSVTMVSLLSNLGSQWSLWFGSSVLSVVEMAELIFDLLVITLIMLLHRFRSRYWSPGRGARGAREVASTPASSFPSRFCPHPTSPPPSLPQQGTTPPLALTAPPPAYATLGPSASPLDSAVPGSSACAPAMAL
T1 sequence (Q9WU38 1-638): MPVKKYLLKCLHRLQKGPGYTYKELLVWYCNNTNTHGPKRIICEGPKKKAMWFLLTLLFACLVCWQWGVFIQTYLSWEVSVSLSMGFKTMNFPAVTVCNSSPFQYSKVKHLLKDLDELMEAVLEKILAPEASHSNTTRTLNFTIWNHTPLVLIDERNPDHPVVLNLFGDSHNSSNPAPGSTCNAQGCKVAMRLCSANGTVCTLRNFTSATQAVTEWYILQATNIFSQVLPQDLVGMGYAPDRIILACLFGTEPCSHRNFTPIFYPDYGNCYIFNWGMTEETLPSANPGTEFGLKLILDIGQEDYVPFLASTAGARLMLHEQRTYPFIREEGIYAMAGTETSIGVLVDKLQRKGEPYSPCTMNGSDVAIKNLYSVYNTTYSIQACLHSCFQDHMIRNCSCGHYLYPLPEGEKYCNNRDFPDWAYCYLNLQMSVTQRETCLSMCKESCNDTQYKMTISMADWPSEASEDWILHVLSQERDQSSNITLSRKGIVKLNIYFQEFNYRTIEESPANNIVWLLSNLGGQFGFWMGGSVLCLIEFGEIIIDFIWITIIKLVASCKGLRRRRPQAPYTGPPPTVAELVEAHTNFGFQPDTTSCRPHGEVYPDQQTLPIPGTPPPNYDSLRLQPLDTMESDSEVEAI
T1 sequence (Q9WU39 1-655): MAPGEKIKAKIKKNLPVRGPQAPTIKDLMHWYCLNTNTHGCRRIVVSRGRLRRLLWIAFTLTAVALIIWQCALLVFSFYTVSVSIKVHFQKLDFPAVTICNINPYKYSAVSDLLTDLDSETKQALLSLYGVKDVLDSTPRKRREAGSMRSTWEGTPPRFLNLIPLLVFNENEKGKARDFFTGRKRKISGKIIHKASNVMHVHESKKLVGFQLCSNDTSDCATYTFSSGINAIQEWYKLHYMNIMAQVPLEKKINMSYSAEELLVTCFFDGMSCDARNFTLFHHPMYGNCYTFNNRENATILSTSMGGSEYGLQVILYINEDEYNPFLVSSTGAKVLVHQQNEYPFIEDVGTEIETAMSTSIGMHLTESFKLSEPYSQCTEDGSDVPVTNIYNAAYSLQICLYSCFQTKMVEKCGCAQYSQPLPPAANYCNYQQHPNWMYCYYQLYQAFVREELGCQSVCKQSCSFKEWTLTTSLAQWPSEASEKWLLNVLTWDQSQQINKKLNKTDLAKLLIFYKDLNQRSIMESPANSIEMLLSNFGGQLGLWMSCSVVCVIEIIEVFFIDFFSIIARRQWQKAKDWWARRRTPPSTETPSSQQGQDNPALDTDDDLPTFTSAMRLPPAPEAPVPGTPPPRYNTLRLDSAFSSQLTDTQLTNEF
The assay is described as follows: whole-cell patch clamp dose-response and competition with amiloride in CHO cells (partial inhibitor, Emax […]); direct action inferred, secondary effects not excluded. Type of assay: cell-based.

For `[NH2][Pt]([NH2])([Cl])[Cl]` [CDDP, cis-diamminedichloroplatinum (II)], the IC50 came to 1 ± 0.18 µM.
